Here are results for seven compounds from patent publication US4169834A, “Rifamycin derivatives” (Gruppo Lepetit S.p.A., priority 1977, dated 1979).

What all share (type): cell-based
One test concerns Strept. faecalis. The experiment in a line: in vitro antibacterial activity (MIC), Strept. faecalis. To be noted: Enterococcus faecalis. An excerpt: (§1) The MIC is expressed as μg/ml.
For a further test, the system named is Strept. pneumoniae. Kind of test: in vitro antibacterial activity (MIC), Strept. pneumoniae. To be noted: Streptococcus pneumoniae.
Source text: as §1

Another test has as its system Staph. Aureus Tour. The experiment in a line: in vitro antibacterial activity (MIC), Staph. Aureus Tour. As to conditions: Staphylococcus aureus.
Source text: as §1

Another test concerns Kleb. pneumoniae. Kind of test: in vitro antibacterial activity (MIC), Kleb. pneumoniae. To be noted: Klebsiella pneumoniae.
Source text: as §1

A further test deals with Proteus vulgaris. Kind of test: in vitro antibacterial activity (MIC), Proteus vulgaris.
Source text: as §1

For a further test, the system named is Escherichia coli. The experiment in a line: in vitro antibacterial activity (MIC), Escherichia coli.
Source text: as §1

The test system of a further test is Strept. haemolyticus. Kind of test: in vitro antibacterial activity (MIC), Strept. haemolyticus.
Source text: as §1

The test system of a further test is Staph. Aureus. The experiment in a line: in vitro antibacterial activity (MIC), Staph. Aureus. As to conditions: Staphylococcus aureus.
Source text: as §1

In another test the test system is Pseud. aeruginosa. Kind of test: in vitro antibacterial activity (MIC), Pseud. aeruginosa. To be noted: Pseudomonas aeruginosa.
Source text: as §1

A further test concerns Myc. Tub. H37 Rv. The experiment in a line: in vitro antibacterial activity (MIC), Myc. Tub. H37 Rv.

Each structure is given as a SMILES string. Values after ≈ are worked out from the molar mass of the structure shown.

The term MIC denotes the smallest concentration in the dilution series that meets the test's criterion for growth inhibition. A lower MIC goes with inhibition by little substance.

For `CCc1nc2c(s1)c1c(O)c3c(O)c(C)c4c(c32)C(=O)C(C)(OC=CC(OC)C(C)C(OC(C)=O)C(C)C(O)C(C)C(O)C(C)C=CC=C(C)C(=O)N1)O4` (stereo not shown) [Example 1, 4-Deoxy-2'-ethyl-thiazolo[5,4-c]rifamycin SV], the MIC with Strept. faecalis stood at 0.0062 µg/mL (≈ 0.00808 µM); in the test on Strept. pneumoniae, 0.0062 µg/mL (≈ 0.00808 µM); against Staph. Aureus Tour, 0.00078 µg/mL (≈ 0.00102 µM); against Kleb. pneumoniae it was 25 µg/mL (≈ 32.6 µM); against Proteus vulgaris, 6.25 µg/mL (≈ 8.15 µM); in the test on Escherichia coli it was 12.5 µg/mL (≈ 16.3 µM). Further, the MIC in the test on Strept. haemolyticus came to 0.012 µg/mL (≈ 0.0156 µM); in the test with Staph. Aureus it was 0.0004 µg/mL (≈ 0.000522 µM); in the test on Pseud. aeruginosa, 12.5 µg/mL (≈ 16.3 µM); in the test with Myc. Tub. H37 Rv it was 0.31 µg/mL (≈ 0.404 µM).

As to `COC1C=COC2(C)Oc3c(C)c(O)c4c(O)c(c5sc(C)nc5c4c3C2=O)NC(=O)C(C)=CC=CC(C)C(O)C(C)C(O)C(C)C(OC(C)=O)C1C` (stereo not shown) [Example 2, 4-Deoxy-2'-methyl-thiazolo[5,4-c]rifamycin SV], the MIC in the test with Strept. faecalis was found to be 0.0031 µg/mL (≈ 0.00412 µM); in the test with Strept. pneumoniae, 0.0062 µg/mL (≈ 0.00824 µM); in the test on Staph. Aureus Tour, 0.0031 µg/mL (≈ 0.00412 µM); in the test on Kleb. pneumoniae, 25 µg/mL (≈ 33.2 µM); against Proteus vulgaris, 1.56 µg/mL (≈ 2.07 µM); against Escherichia coli it was 12.5 µg/mL (≈ 16.6 µM). Besides, the MIC was determined as 0.0031 µg/mL (≈ 0.00412 µM) in the test on Strept. haemolyticus, 0.00078 µg/mL (≈ 0.00104 µM) in the test on Staph. Aureus, 25 µg/mL (≈ 33.2 µM) against Pseud. aeruginosa and 0.62 µg/mL (≈ 0.824 µM) in the test with Myc. Tub. H37 Rv.

For the compound `COC1C=COC2(C)Oc3c(C)c(O)c4c(O)c(c5sc(CC(C)C)nc5c4c3C2=O)NC(=O)C(C)=CC=CC(C)C(O)C(C)C(O)C(C)C(OC(C)=O)C1C` (stereo not shown) [Example 5, 4-Deoxy-2'-isobutyl-thiazolo[5,4-c]rifamycin SV], the minimum inhibitory concentration (MIC) against Strept. faecalis was determined as 0.0062 µg/mL (≈ 0.0078 µM); against Strept. pneumoniae, 0.0062 µg/mL (≈ 0.0078 µM); with Staph. Aureus Tour it was 0.001 µg/mL (≈ 0.00126 µM); against Kleb. pneumoniae, 50 µg/mL (≈ 62.9 µM); in the test with Proteus vulgaris it was 3.12 µg/mL (≈ 3.92 µM); against Escherichia coli, 12.5 µg/mL (≈ 15.7 µM). The minimal inhibitory concentration (MIC) in the test on Strept. haemolyticus amounted to 0.001 µg/mL (≈ 0.00126 µM); in the test on Staph. Aureus, 0.00078 µg/mL (≈ 0.000981 µM); with Pseud. aeruginosa it was 12.5 µg/mL (≈ 15.7 µM); against Myc. Tub. H37 Rv, 0.15 µg/mL (≈ 0.189 µM).

For the compound `CCCCCCc1nc2c(s1)c1c(O)c3c(O)c(C)c4c(c32)C(=O)C(C)(OC=CC(OC)C(C)C(OC(C)=O)C(C)C(O)C(C)C(O)C(C)C=CC=C(C)C(=O)N1)O4` (stereo not shown) [Example 6, 4-Deoxy-2'-hexyl-thiazolo[5,4-c]rifamycin SV], the minimum inhibitory concentration (MIC) stood at 0.012 µg/mL (≈ 0.0146 µM) against Strept. faecalis; 0.012 µg/mL (≈ 0.0146 µM) with Strept. pneumoniae; 0.0031 µg/mL (≈ 0.00377 µM) against Staph. Aureus Tour; 25 µg/mL (≈ 30.4 µM) against Kleb. pneumoniae; 3.12 µg/mL (≈ 3.79 µM) in the test on Proteus vulgaris; 12.5 µg/mL (≈ 15.2 µM) with Escherichia coli. For the same compound, the MIC with Strept. haemolyticus is 0.012 µg/mL (≈ 0.0146 µM); in the test with Staph. Aureus it was 0.0012 µg/mL (≈ 0.00146 µM); with Pseud. aeruginosa, 12.5 µg/mL (≈ 15.2 µM); in the test with Myc. Tub. H37 Rv, 1.2 µg/mL (≈ 1.46 µM).

For `CCCc1nc2c(s1)c1c(O)c3c(O)c(C)c4c(c32)C(=O)C(C)(OC=CC(OC)C(C)C(OC(C)=O)C(C)C(O)C(C)C(O)C(C)C=CC=C(C)C(=O)N1)O4` (stereo not shown) [Example 3, 4-Deoxy-2'-propyl-thiazolo[5,4-c]rifamycin SV], the MIC turned out to be 0.00156 µg/mL (≈ 0.002 µM) with Strept. faecalis; 0.00078 µg/mL (≈ 0.000999 µM) against Strept. pneumoniae; 0.00156 µg/mL (≈ 0.002 µM) in the test on Staph. Aureus Tour; 25 µg/mL (≈ 32 µM) in the test with Kleb. pneumoniae; 3.12 µg/mL (≈ 4 µM) in the test on Proteus vulgaris; 12.5 µg/mL (≈ 16 µM) against Escherichia coli. Further, the MIC is 0.0031 µg/mL (≈ 0.00397 µM) in the test with Strept. haemolyticus, 0.00078 µg/mL (≈ 0.000999 µM) against Staph. Aureus, 12.5 µg/mL (≈ 16 µM) against Pseud. aeruginosa and 0.62 µg/mL (≈ 0.794 µM) with Myc. Tub. H37 Rv.

On to `COC1C=COC2(C)Oc3c(C)c(O)c4c(O)c(c5sc(C(C)C)nc5c4c3C2=O)NC(=O)C(C)=CC=CC(C)C(O)C(C)C(O)C(C)C(OC(C)=O)C1C` (stereo not shown) [Example 4, 4-Deoxy-2'-isopropyl-thiazolo[5,4-c]rifamycin SV], for which the MIC in the test on Strept. faecalis is 0.012 µg/mL (≈ 0.0154 µM); against Strept. pneumoniae, 0.012 µg/mL (≈ 0.0154 µM); with Staph. Aureus Tour, 0.00156 µg/mL (≈ 0.002 µM); with Kleb. pneumoniae it was 25 µg/mL (≈ 32 µM); with Proteus vulgaris it was 6.25 µg/mL (≈ 8 µM); in the test with Escherichia coli it was 12.5 µg/mL (≈ 16 µM). The MIC against Strept. haemolyticus turned out to be 0.012 µg/mL (≈ 0.0154 µM); against Staph. Aureus, 0.00078 µg/mL (≈ 0.000999 µM); against Pseud. aeruginosa, 12.5 µg/mL (≈ 16 µM); in the test on Myc. Tub. H37 Rv it was 0.31 µg/mL (≈ 0.397 µM).

Take `COC1C=COC2(C)Oc3c(C)c(O)c4c(O)c(c5scnc5c4c3C2=O)NC(=O)C(C)=CC=CC(C)C(O)C(C)C(O)C(C)C(O)C1C` (stereo not shown) [Example 8, 25-Desacetyl-4-deoxy-thiazolo[5,4-c]rifamycin SV]: the MIC in the test on Strept. faecalis stood at 0.4 µg/mL (≈ 0.574 µM); against Strept. pneumoniae, 0.1 µg/mL (≈ 0.144 µM); with Staph. Aureus Tour, 0.1 µg/mL (≈ 0.144 µM); against Kleb. pneumoniae it was 12.5 µg/mL (≈ 17.9 µM); against Proteus vulgaris it was 0.78 µg/mL (≈ 1.12 µM); with Escherichia coli it was 6.25 µg/mL (≈ 8.97 µM). The minimal inhibitory concentration (MIC) stood at 0.1 µg/mL (≈ 0.144 µM) in the test with Strept. haemolyticus, 0.02 µg/mL (≈ 0.0287 µM) against Staph. Aureus, 12.5 µg/mL (≈ 17.9 µM) with Pseud. aeruginosa and 0.6 µg/mL (≈ 0.861 µM) in the test with Myc. Tub. H37 Rv.
